# Results as given in US20050049197A1, “Induction of immune response against desired determinants” (Epimmune Inc., priority 1993, published 2005).
# Where “and” joins values, the source holds several entries; their conditions need not be identical. Equal entries are not always repeated.
# Legend:
# P. yoelii sporozoites = experiment: Inhibition of liver stage development assay (ILSDA), mouse hepatocytes infected with P. yoelii sporozoites; format: cell-based; conditions: sera of immunized mice, mouse hepatocytes
# Method: (§1) In certain experiments, peptides were emulsified in complete Freund's adjuvant (CFA) and injected subcutaneously (S.C.) at the base of the tail in 100 μl volume containing 100 μg of peptide. Mice were boosted with 100 μg of peptide emulsified in 100 μl of incomplete Freund's adjuvant (IFA) 1 month later. Mice were bled just prior to boosting, and 2 weeks after boosting.
# All cell culture reagents were obtained from quality Biological, Gaithersburg, Md. The slides were incubated overnight at 37° C. in a 5% CO2/95% air environment. The medium was changed the following day and fresh medium containing dexamethasone (7×10^−5) was added to the cultures.
# (§2) The 17XNL (nonlethal) strain of P. yoelii or the NF54 strain of P. falciparum were used for murine and human hepatocyte in vitro infections, respectively.
# (§3) Briefly, 25 μl of the serum samples, diluted to 2× their final concentration, were added to triplicate chamber-slide wells. P. yoeilli or P. falciparum sporozoites, 75,000/well, were then added in a volume of 25 μl to the mouse or human hepatocyte cultures respectively. The cultures were incubated for 3 h, then washed extensively with fresh medium to remove unattached sporozoites. The infected hepatocytes were then incubated for a further 2 (P. yoelii) or 5 days (P. falciparum) with the medium being changed each day of culture. The slides were fixed and immunostained with either a P. yoelii- or P. falciparum-specific monoclonal antibody. Schizonts were counted from the triplicate cultures and the percent inhibition determined as follows: control−test/control×100. Sera from mice injected with CFA (first dose) and IFA (second and third doses) served as the negative controls.
# [1] = test system: P. falciparum sporozoites; experiment: Inhibition of liver stage development assay (ILSDA), human hepatocytes infected with P. falciparum sporozoites; format: cell-based; conditions: sera of C57BL/6 mice immunized with peptide in CFA/IFA, final dilution 1:100
# Method: as §1
# Human hepatocytes were isolated from nontransplantable liver tissue donated for research. […] The hepatocytes were allowed to attach and spread overnight with the media being changed the following day.
# as §2, §3
# DR4w4 = DR4w4 (Homo sapiens, UniProt P01903+P01911, A100K/A169T/F76Y/I96L/K127E/L162R/M171V/N62H/P40V/Q125Y/R42H/S133A/S149N/S66Y/V115G/V209L/W38E); experiment: biochemical; format: binding
# DR1 = DR1 (Homo sapiens, UniProt P01903+P01911, A100R/D57E/F55L/F60I/F76Y/I96L/L162R/M171V/P40L/Q125E/R42F/V115G/Y59C); experiment: biochemical; format: binding
# DQ3.1 = test system: DQ3.1; set-up: species or system human; conditions: read-out: Binding Activity DQ3.1, IC50
# [2] = test system: PBMC from normal individuals; experiment: In vitro T cell proliferative responses of human PBMC ([3H]thymidine incorporation); format: cell-based; conditions: for AVERAGE S.I. / AVERAGE ΔMAX CPM: average of 5 donors; for X144 (Δmax cpm) / X144 S.I.: donor X144; for X162 (Δmax cpm) / X162 S.I.: donor X162; for X349 (Δmax cpm) / X349 S.I.: donor X349; for X372 (Δmax cpm) / X372 S.I.: donor X372; for X460 (Δmax cpm) / X460 S.I.: donor X460
# DR5 = test system: DR5; set-up: species or system human; conditions: read-out: Binding Activity DR5, IC50
# DR2w2b = test system: DR2w2b; set-up: species or system human; conditions: read-out: Binding Activity DR2wB2, IC50
# DRw53 = DRw53 (Homo sapiens, UniProt P01903+P13762); experiment: biochemical; format: binding
# DR3 = test system: DR3; set-up: species or system human; conditions: read-out: Binding Activity DR3, IC50
# IAk = IAk (Mus musculus, UniProt P01910+P06343); experiment: biochemical
# [3] = test system: air-dried P. yoelii sporozoites; conditions: in vivo
# [4] = test system: P. yoelii 17XNL sporozoites; conditions: in vivo
Compound,% Inhibition (P. yoelii sporozoites; dilution 1:100) [%],Mean schizonts/well + S.D. (P. yoelii sporozoites; dilution 1:100),% Inhibition (P. yoelii sporozoites; dilution 1:200) [%],Mean schizonts/well + S.D. (P. yoelii sporozoites; dilution 1:200),Mean schizonts/well ± S.D. [1] [schizonts/well],IC50 (DR4w4) [nM],IC50 (DQ3.1) [nM],AVERAGE S.I. ([2]; 2nd Stimulation),AVERAGE ΔMAX CPM ([2]; 2nd Stimulation) [cpm],X144 (Δmax cpm) ([2]; 2nd Stimulation) [cpm],X144 S.I. ([2]; 2nd Stimulation),X162 (Δmax cpm) ([2]; 2nd Stimulation) [cpm],X162 S.I. ([2]; 2nd Stimulation),X349 (Δmax cpm) ([2]; 2nd Stimulation) [cpm],X349 S.I. ([2]; 2nd Stimulation),X372 (Δmax cpm) ([2]; 2nd Stimulation) [cpm],X372 S.I. ([2]; 2nd Stimulation),X460 (Δmax cpm) ([2]; 2nd Stimulation) [cpm],X460 S.I. ([2]; 2nd Stimulation),AVERAGE S.I. ([2]; 3rd Stimulation),other results
(NANP)4 [PfB],13.4,71 ± 7 schizonts/well,6.2,76 ± 7 schizonts/well,15.6 ± 8.7,–,–,–,–,–,–,–,–,–,–,–,–,–,–,–,% Inhibition [1]: 80% and 79.7%
CC(C)C[C@H](NC(=O)[C@@H](NC(=O)[C@H](Cc1c[nH]c2ccccc12)NC(=O)[C@H](C)NC(=O)[C@H](C)NC(=O)[C@@H](NC(=O)[C@H](CC1CCCCC1)NC(=O)[C@H](CCCCN)NC(=O)[C@@H](C)N)C(C)C)[C@@H](C)O)C(=O)N[C@@H](CCCCN)C(=O)N[C@@H](C)C(=O)N[C@@H](C)C(=O)N[C@H](C)C(N)=O [965.10],–,–,–,–,–,2.8,25,3.9,25767,11663,1.8,20693,7.9,22133,3.5,44414,3.2,29933,3.3,11.5,IC50 (DR1): 1.2 nM; AVERAGE ΔMAX CPM ([2]; 3rd Stimulation): 31002 cpm; X144 (Δmax cpm) ([2]; 3rd Stimulation): 33159 cpm; X144 S.I. ([2]; 3rd Stimulation): 14; X162 (Δmax cpm) ([2]; 3rd Stimulation): 34548 cpm; X162 S.I. ([2]; 3rd Stimulation): 11; X349 (Δmax cpm) ([2]; 3rd Stimulation): 38931 cpm; X349 S.I. ([2]; 3rd Stimulation): 3.5; X372 (Δmax cpm) ([2]; 3rd Stimulation): 36995 cpm; X372 S.I. ([2]; 3rd Stimulation): 15; X460 (Δmax cpm) ([2]; 3rd Stimulation): 11376 cpm; X460 S.I. ([2]; 3rd Stimulation): 15; IC50 (DR5): 11.1 nM; IC50 (DR2w2b): 5.6 nM
CC(C)C[C@H](NC(=O)[C@@H](NC(=O)[C@H](CCCCN)NC(=O)[C@H](C)NC(=O)[C@H](C)NC(=O)[C@@H](NC(=O)[C@H](CC1CCCCC1)NC(=O)[C@H](CCCCN)NC(=O)[C@@H](C)N)C(C)C)[C@@H](C)O)C(=O)N[C@@H](CCCCN)C(=O)N[C@@H](C)C(=O)N[C@@H](C)C(=O)N[C@H](C)C(N)=O [965.14],–,–,–,–,–,7.4,> 10000,1.5,5523,3570,1.1,4655,2.1,4421,1.3,10608,1.4,4365,1.4,2,AVERAGE ΔMAX CPM ([2]; 3rd Stimulation): 10583 cpm; X144 (Δmax cpm) ([2]; 3rd Stimulation): 4319 cpm; X144 S.I. ([2]; 3rd Stimulation): 2.3; X162 (Δmax cpm) ([2]; 3rd Stimulation): 10734 cpm; X162 S.I. ([2]; 3rd Stimulation): 1.7; X349 (Δmax cpm) ([2]; 3rd Stimulation): 17849 cpm; X349 S.I. ([2]; 3rd Stimulation): 2; X372 (Δmax cpm) ([2]; 3rd Stimulation): 19140 cpm; X372 S.I. ([2]; 3rd Stimulation): 2.1; X460 (Δmax cpm) ([2]; 3rd Stimulation): 874 cpm; X460 S.I. ([2]; 3rd Stimulation): 2; IC50 (DRw53): 52.8 nM; IC50 (DR5): 3.4 nM; IC50 (DR2w2b): 8 nM; IC50 (DR3): 781 nM
CC[C@H](C)[C@H](NC(=O)CNC(=O)[C@H](Cc1ccc(O)cc1)NC(=O)[C@H](CC(=O)O)NC(=O)[C@@H](NC(=O)[C@H](CO)NC(=O)CNC(=O)[C@H](CC(=O)O)NC(=O)[C@@H](NC(=O)[C@H](CC(N)=O)NC(=O)[C@@H](N)Cc1ccc(O)cc1)[C@@H](C)O)[C@@H](C)O)C(=O)N[C@@H](CC(C)C)C(=O)N[C@@H](CCC(N)=O)C(=O)N[C@H](C(=O)N[C@@H](CC(N)=O)C(=O)N[C@@H](CO)C(=O)N[C@@H](CCCNC(=N)N)C(=O)O)[C@@H](C)CC [HEL 46-61],–,–,–,–,–,–,–,–,–,–,–,–,–,–,–,–,–,–,–,–,IC50 (IAk): 20 nM
G(QGPGAP)4 [PyB],50,41 + 3.8 schizonts/well,43.2,46 + 4 schizonts/well,70 ± 14,–,–,–,–,–,–,–,–,–,–,–,–,–,–,–,"levels of antibodies against sporozoites and the PyCSP (immunogenicity, in words) [3]: poorly immunogenic; % Protected [4]: 12.5%; Infected/challenged [4]: 7/8"
